In the supplement of paper PMC10627819:

Tests used:
[1] = test system: S. pneumoniae D39V; assay: Bliss interaction score (quartile over a dose matrix) (fitness difference); higher = more antagonism (negative = synergy)
Summary of the method: (§1)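 Quartiles summarise the Bliss score over technical, biological and donor/recipient replicates, where the score is observed minus expected fitness under a product model. Expected fitness uses single-drug values inferred from combination data. Fitness is OD595 at entry into stationary phase over the plate's robust no-drug mean, capped at 1.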

[2] = test system: S. aureus Newman; assay: as above
Summary of the method: as §1

[3] = test system: B. subtilis 168; assay: as above
Summary of the method: as §1

[4] = test system: S. aureus DSM 20231; assay: as above
Summary of the method: as §1

[5] = test system: S. pneumoniae D39V; assay: fitness (endpoint OD595 vs no drug) (fraction); higher = more growth
Summary of the method: (§2)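 Cultures at OD595 0.01 were dispensed into 384-well plates in TSB, LB Lennox or CY and incubated at 37 °C. Every 30 min for 14 h, OD595 was read and corrected by the first reading. Fitness is the optical density at entry into stationary phase relative to the robust mean of no-drug control wells, capped at 1.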

[6] = test system: S. aureus DSM 20231; assay: as above
Summary of the method: as §2

[7] = test system: B. subtilis 168; assay: as above
Summary of the method: as §2

[8] = test system: S. aureus Newman; assay: as above
Summary of the method: as §2
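Wherever Bliss interaction score (quartile over a dose matrix) is given: first quartile when negative (synergy) and third quartile when positive (antagonism).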

CC(=O)NC[C@H]1CN(c2ccc(N3CCOCC3)c(F)c2)C(=O)O1 [Linezolid] + Cn1nnc(-c2ccc(-c3ccc(N4C[C@H](CO)OC4=O)cc3F)cn2)n1 [Tedizolid]
Details | Bliss interaction score
[1] | -0.148
[2] | -0.153
[3] | -0.188
[4] | -0.185

fitness
Details | partner 0.03125 µg/mL | partner 0.0625 µg/mL | partner 0.125 µg/mL | partner 0.25 µg/mL | partner 0.5 µg/mL
[5], first compound 0.105 µg/mL | – | – | 0.682 | 0.441 | 0.141
[5], first compound 0.2 µg/mL | 0.819 | 0.825 | 0.723 | – | –
[5], first compound 0.21 µg/mL | – | – | 0.58 | 0.286 | 0.0818
[5], first compound 0.4 µg/mL | 0.73 | 0.724 | 0.633 | – | –
[5], first compound 0.42 µg/mL | – | – | 0.249 | 0.107 | 0.0451
[5], first compound 0.8 µg/mL | 0.549 | 0.578 | 0.465 | – | –
[6], first compound 0.125 µg/mL | – | 0.689 | 0.501 | 0.257 | –
[6], first compound 0.25 µg/mL | – | 0.456 | 0.26 | 0.141 | –
[6], first compound 0.5 µg/mL | – | 0.119 | 0.0888 | 0.0646 | –

[6], first compound 1 µg/mL, one replicate
Details | fitness
partner 0.0625 µg/mL | 0.0257
partner 0.125 µg/mL | 0.0309
partner 0.25 µg/mL | 0.0295

CN[C@@H]1[C@H](O)[C@H](NC)[C@H]2O[C@@]3(O)C(=O)C[C@@H](C)O[C@H]3O[C@@H]2[C@H]1O [Spectinomycin] + COc1cc(Cc2cnc(N)nc2N)cc(OC)c1OC [Trimethoprim]
Details | Bliss interaction score
[1] | -0.161
[2] | 0.0863
[3] | -0.0925
[4] | 0.0932

fitness, one replicate
Details | first compound 2 µg/mL | first compound 4 µg/mL | first compound 8 µg/mL | first compound 32 µg/mL | first compound 64 µg/mL
[6], partner 0.125 µg/mL | – | 0.808 | 0.822 | 0.629 | 0.026
[6], partner 0.25 µg/mL | – | – | – | 0.573 | 0.0208
[6], partner 0.5 µg/mL | – | – | – | 0.299 | 0.0374
[7], partner 0.1 µg/mL | 0.871 | 0.821 | 0.686 | – | –
[7], partner 0.125 µg/mL | 0.707 | 0.606 | 0.414 | – | –
[7], partner 0.2 µg/mL | 0.781 | 0.762 | 0.386 | – | –
[7], partner 0.4 µg/mL | 0.473 | 0.556 | 0.223 | – | –
[7], partner 1 µg/mL | 0.508 | 0.338 | 0.167 | – | –
[7], partner 2 µg/mL | 0.408 | 0.187 | 0.0702 | – | –

fitness
Details | first compound 4 µg/mL | first compound 8 µg/mL | first compound 16 µg/mL
[6], partner 0.125 µg/mL | – | – | 0.654
[6], partner 0.25 µg/mL | 0.598 | 0.593 | 0.649
[6], partner 1 µg/mL | 0.0368 | 0.0298 | 0.0188
[7], partner 0.25 µg/mL | – | 0.482 | –
[7], partner 0.5 µg/mL | 0.496 | 0.308 | –

CN[C@@H]1[C@H](O[C@H]2[C@H](O[C@H]3[C@H](O)[C@@H](O)[C@H](N=C(N)N)[C@@H](O)[C@@H]3N=C(N)N)O[C@@H](C)[C@]2(O)C=O)O[C@@H](CO)[C@H](O)[C@H]1O [Streptomycin] + CN(N=O)C(=O)N[C@@H](C=O)[C@@H](O)[C@H](O)[C@H](O)CO [Streptozotocin]
Details | Bliss interaction score
[1] | 0.062
[2] | 0.0357
[3] | -0.134
[4] | -0.109

fitness
Details | first compound 1 µg/mL | first compound 2 µg/mL | first compound 4 µg/mL | first compound 8 µg/mL
[5], partner 1.2 µg/mL | – | 0.988 | 0.975 | 0.896
[5], partner 2.4 µg/mL | – | 0.945 | 0.932 | 0.951
[5], partner 4.8 µg/mL | – | 0.954 | 0.958 | 0.903
[7], partner 0.15 µg/mL | – | 0.954 | 0.308 | 0.0987
[7], partner 0.3 µg/mL | – | 0.978 | 0.332 | 0.0267
[7], partner 0.6 µg/mL | – | 0.98 | 0.266 | 0.0223
[8], partner 0.15 µg/mL | 0.884 | 0.818 | – | –
[8], partner 0.3 µg/mL | 0.767 | 0.649 | – | –
[8], partner 0.6 µg/mL | 0.555 | 0.485 | 0.473 | –

[5], first compound 16 µg/mL, one replicate
Details | fitness
partner 1.2 µg/mL | 0.744
partner 2.4 µg/mL | 0.773
partner 4.8 µg/mL | 0.782
